{"source": "patent US20070275949A1", "about": "“Benzazepine Derivatives and Methods of Prophylaxis or Treatment of 5Ht2C Receptor Associated Diseases” (Arena Pharmaceuticals, Inc., priority 2003, published 2007)", "origin": "cited, not measured here", "system": "guinea pigs", "conditions": "in vivo, repeat administration", "data": [{"smiles": "C[C@H](N)Cc1cccc(C(F)(F)F)c1", "note": "[dexnorfenfluramine]", "values": [{"measurement": "amyloid precursor protein (APPs) secretion", "result": "stimulated"}, {"measurement": "levels of Aβ production", "result": "reducing"}]}]}
